Tests used:
[1] = target: FGFR1 (Homo sapiens (Human), UniProt P11362); experiment: Z'-LYTE kinase inhibition assay, FGFR1; type: biochemical; conditions: for inhibition at 0.041 µM: compound at 0.041 μM, read-out: % inhibition against FGFR1; for IC50: read-out: IC50 against FGFR1
Description: (§1) Inhibitory activities of compounds against BTK, EGFR and EGFR mutants (EGFR L858R, EGFR T790M, EGFR L858R/T790M), FGFR1, FGFR2, JAK2, JAK3 and KDR were measured by Invitrogen using Z'-LYTE® Method as briefly described in the following.
(§2) Test Compounds are screened in 1% DMSO (final) in the well. For 10 point titrations, 3-fold serial dilutions are conducted from the starting concentration. All ATP Solutions are diluted to a 4× working concentration in Kinase Buffer (50 mM HEPES pH 7.5, 0.01% BRIJ-35, 10 mM MgCl2, 1 mM EGTA). Peptide/Kinase Mixtures are diluted to a 2× working concentration in the appropriate Kinase Buffers as described below.
(v) Peptide/Kinase Mixtures for Measurement of FGFR1:
The 2×FGFR1/Tyr 04 mixture is prepared in 50 mM HEPES pH 7.5, 0.01% BRIJ-35, 10 mM MgCl2, 4 mM MnCl2, 1 mM EGTA, 2 mM DTT. The final 10 μL Kinase Reaction consists of 0.41-3.5 ng FGFR1 and 2 μM Tyr 04 in 50 mM HEPES pH 7.5, 0.01% BRIJ-35, 10 mM MgCl2, 2 mM MnCl2, 1 mM EGTA, 1 mM DTT. After the 1 hour Kinase Reaction incubation, 5 μL of a 1:64 dilution of Development Reagent B is added.
(§3) Reaction starts by 30-second shaking of mixture consisting of 2.5 μL 4× test compound, […] 2× kinase reaction mixture and 2.5 μL 4×ATP Solution on Bar-coded Corning, low volume NBS, black 384-well plate (Corning Cat. #3676). Then the mixture is incubated for 60-minute at room temperature for the kinase reaction, followed by addition of 5 μL of a 1:1024 dilution of development reagent A and 30-second plate shake. The mixture is then incubated for another 60-minute at room temperature for development reaction. Finally fluorescence is read by plate reader.
To determine IC50 of a compound against EGFR, EGFR mutant and other kinases, a series of concentrations of the compound were tested for the inhibition. […] The scale utilized in Table 4 is as follows: +++ less than 100 nM, ++ 100-500 nM and + greater than 500 nM.

[2] = target: JAK2 (Homo sapiens (Human), UniProt O60674); experiment: Z'-LYTE kinase inhibition assay, JAK2; type: biochemical; conditions: compound at 0.041 μM; read-out: % inhibition against JAK2
JAK2, sequence (O60674 whole entry): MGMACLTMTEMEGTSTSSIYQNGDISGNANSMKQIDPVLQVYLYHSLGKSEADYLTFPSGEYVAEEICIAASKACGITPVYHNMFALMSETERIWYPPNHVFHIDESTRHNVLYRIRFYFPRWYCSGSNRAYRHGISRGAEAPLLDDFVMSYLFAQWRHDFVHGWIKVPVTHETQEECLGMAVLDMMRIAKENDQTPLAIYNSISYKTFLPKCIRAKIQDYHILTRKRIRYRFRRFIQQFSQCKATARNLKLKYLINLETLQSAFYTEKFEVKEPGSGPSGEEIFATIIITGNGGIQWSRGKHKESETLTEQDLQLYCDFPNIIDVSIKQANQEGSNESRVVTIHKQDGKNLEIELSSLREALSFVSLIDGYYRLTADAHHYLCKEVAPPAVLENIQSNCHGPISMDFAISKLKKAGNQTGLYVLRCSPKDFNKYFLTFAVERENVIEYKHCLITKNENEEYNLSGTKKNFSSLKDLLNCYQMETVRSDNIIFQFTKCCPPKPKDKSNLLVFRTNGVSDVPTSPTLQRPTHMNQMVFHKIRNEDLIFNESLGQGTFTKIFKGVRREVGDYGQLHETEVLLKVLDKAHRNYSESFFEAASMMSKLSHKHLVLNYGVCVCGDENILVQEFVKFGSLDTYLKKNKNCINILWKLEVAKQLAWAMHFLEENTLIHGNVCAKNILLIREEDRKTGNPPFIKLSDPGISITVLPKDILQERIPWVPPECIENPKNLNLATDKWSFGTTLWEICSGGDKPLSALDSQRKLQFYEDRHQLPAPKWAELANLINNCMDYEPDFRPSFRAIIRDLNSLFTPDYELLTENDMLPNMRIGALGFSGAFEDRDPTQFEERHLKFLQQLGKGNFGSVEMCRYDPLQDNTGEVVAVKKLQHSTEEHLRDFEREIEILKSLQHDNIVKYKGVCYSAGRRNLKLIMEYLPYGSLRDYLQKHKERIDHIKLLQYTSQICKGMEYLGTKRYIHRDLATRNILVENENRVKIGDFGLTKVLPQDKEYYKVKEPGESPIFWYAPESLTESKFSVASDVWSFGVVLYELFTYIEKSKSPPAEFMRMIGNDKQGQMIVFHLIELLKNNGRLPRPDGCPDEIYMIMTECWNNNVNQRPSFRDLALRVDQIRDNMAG
Description: as §1, §2
(v) Peptide/Kinase Mixtures for Measurement of JAK2:
The 2×JAK2/Tyr 06 mixture is prepared in 50 mM HEPES pH 7.5, 0.01% BRIJ-35, 10 mM MgCl2, 1 mM EGTA. The final 10 μL Kinase Reaction consists of 0.06-0.81 ng JAK2 and 2 μM Tyr 06 in 50 mM HEPES pH 7.5, 0.01% BRIJ-35, 10 mM MgCl2, 1 mM EGTA. After the 1 hour Kinase Reaction incubation, 5 μL of a 1:64 dilution of Development Reagent A is added.
as §3

[3] = target: EGFR (ErbB1) L858R (Homo sapiens (Human), UniProt P00533, L858R); experiment: Z'-LYTE kinase inhibition assay, EGFR L858R; type: biochemical; conditions: read-out: % inhibition against EGFR L858R (Compound at 1 μM)
EGFR (ErbB1) L858R, sequence (P00533 25-1210 L858R): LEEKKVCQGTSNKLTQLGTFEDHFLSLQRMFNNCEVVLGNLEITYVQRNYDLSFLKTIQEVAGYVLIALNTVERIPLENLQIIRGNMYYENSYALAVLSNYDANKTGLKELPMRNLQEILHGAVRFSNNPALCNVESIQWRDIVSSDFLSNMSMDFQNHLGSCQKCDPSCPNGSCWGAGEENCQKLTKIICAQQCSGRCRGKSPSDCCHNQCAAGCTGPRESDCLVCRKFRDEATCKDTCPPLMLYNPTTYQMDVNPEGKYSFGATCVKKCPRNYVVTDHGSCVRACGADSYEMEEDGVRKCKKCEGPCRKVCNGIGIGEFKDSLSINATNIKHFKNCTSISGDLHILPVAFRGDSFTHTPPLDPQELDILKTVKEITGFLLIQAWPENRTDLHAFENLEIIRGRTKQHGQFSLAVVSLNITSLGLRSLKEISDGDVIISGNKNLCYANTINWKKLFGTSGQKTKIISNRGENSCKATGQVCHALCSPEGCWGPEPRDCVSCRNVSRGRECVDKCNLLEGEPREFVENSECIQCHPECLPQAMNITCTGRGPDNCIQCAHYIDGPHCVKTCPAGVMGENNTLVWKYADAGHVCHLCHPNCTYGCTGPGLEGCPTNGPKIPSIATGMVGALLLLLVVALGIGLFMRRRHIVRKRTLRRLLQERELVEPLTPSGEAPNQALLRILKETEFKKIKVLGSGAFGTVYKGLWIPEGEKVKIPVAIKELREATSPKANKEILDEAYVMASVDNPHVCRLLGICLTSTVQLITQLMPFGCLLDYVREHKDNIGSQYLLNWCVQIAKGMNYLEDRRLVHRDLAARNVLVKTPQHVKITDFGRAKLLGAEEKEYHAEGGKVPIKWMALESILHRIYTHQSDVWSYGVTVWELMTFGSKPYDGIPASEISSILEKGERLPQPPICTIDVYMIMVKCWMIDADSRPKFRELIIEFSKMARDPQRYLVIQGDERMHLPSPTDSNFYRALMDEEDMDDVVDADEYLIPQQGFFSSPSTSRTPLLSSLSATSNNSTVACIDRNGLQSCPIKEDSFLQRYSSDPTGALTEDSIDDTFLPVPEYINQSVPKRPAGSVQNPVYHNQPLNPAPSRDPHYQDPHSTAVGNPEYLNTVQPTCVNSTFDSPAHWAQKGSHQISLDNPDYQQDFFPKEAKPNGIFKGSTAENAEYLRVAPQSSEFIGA
Description: Inhibitory activities of compounds against BTK, EGFR and EGFR mutants (EGFR L858R, EGFR T790M, EGFR L858R/T790M), FGFR1, FGFR2, JAK2, JAK3 and KDR were measured by Invitrogen using Z'-LYTE® Method as briefly described in the following. Test Compounds are screened in 1% DMSO (final) in the well. For 10 point titrations, 3-fold serial dilutions are conducted from the starting concentration. All ATP Solutions are diluted to a 4× working concentration in Kinase Buffer (50 mM HEPES pH 7.5, 0.01% BRIJ-35, 10 mM MgCl2, 1 mM EGTA). Peptide/Kinase Mixtures are diluted to a 2× working concentration in the appropriate Kinase Buffers as described below. (ii) Peptide/Kinase Mixtures for Measurement of EGFR (ErbB1) L858R: The 2×EGFR (ErbB1) L858R/[…] mixture is prepared in 50 mM HEPES pH 7.5, 0.01% BRIJ-35, 10 mM MgCl2, 4 mM MnCl2, 1 mM EGTA, 2 mM DTT. The final 10 μL Kinase Reaction consists of 0.2-1.68 ng EGFR (ErbB1) L858R and 2 μM […] in 50 mM HEPES pH 7.5. 0.01% BRIJ-35, 10 mM MgCl2. 2 mM MnCl2, 1 mM EGTA, 1 mM DTT. After the 1 hour Kinase Reaction incubation, 5 μL of a 1:64 dilution of Development Reagent B is added. Reaction starts by 30-second shaking of mixture consisting of 2.5 μL 4× test compound, […] 2× kinase reaction mixture and 2.5 μL 4×ATP Solution on Bar-coded Corning, low volume NBS, black 384-well plate (Corning Cat. #3676). Then the mixture is incubated for 60-minute at room temperature for the kinase reaction, followed by addition of 5 μL of a 1:1024 dilution of development reagent A and 30-second plate shake. The mixture is then incubated for another 60-minute at room temperature for development reaction. Finally fluorescence is read by plate reader.

[4] = tested on: A431 cells; experiment: cells; conditions: Homo sapiens, A-431, 72 h, read-out: IC50 in A431 cells
[5] = tested on: H1299 cells; experiment: Inhibition of cancer cell growth, MTT assay, H1299; conditions: Homo sapiens, NCI-H1299, 72 h, read-out: IC50 in H1299 cells
[6] = tested on: H3255 cells; experiment: Inhibition of cancer cell growth, MTT assay, H3255; conditions: Homo sapiens, NCI-H3255, 72 h, read-out: IC50 in H3255 cells
Description: Inhibition of cell growth by compounds was measured using MTT assay (Mosmann, T., Journal of Immunological Methods, 1983, 65, 55-63). Tumor cell lines were purchased from ATCC (American Type Culture Collection, Manassas, Va.). All cell lines were maintained in RPMI 1640 (Hyclone) supplemented with 10% fetal bovine serum (FBS, Hyclone), glutamine (2 mM, Hyclone), and antibiotics (penicillin 100 U/mL and streptomycin 50 μg/mL) at 37° C. in a humidified atmosphere of 5% CO2 in air. Taxol (as a positive control. Sigma) and compounds were dissolved in DMSO (Sigma), and the final concentration of DMSO in the medium was 1%. Tumor cells were plated in 96-well plates at densities of about 4000 cells/well of a 96-well plate and allowed to adhere/grow for 24 h. They were then treated with various concentrations of drug for 72 h, 3-(4,5-Dimethylthiazol-2-yl)-2,5-diphenyltetrazolium bromide (MTT, Sigma) was used to determine the number of viable cells at the time of compound addition and the number of cells remaining after 72 h compound exposure. The number of cells remaining after 72 h was compared to the number of viable cells at the time of compound addition by measuring the absorbance at 570 nm, allowing for the calculation of growth inhibition.
All concentrations of compounds were tested in triplicate and controls were averaged over 4 wells. IC50 was calculated by plotting the concentration of compound vs the percentage of inhibition in treated wells using GraphPad Prism 5.

FGFR1, sequence (P11362 22-822): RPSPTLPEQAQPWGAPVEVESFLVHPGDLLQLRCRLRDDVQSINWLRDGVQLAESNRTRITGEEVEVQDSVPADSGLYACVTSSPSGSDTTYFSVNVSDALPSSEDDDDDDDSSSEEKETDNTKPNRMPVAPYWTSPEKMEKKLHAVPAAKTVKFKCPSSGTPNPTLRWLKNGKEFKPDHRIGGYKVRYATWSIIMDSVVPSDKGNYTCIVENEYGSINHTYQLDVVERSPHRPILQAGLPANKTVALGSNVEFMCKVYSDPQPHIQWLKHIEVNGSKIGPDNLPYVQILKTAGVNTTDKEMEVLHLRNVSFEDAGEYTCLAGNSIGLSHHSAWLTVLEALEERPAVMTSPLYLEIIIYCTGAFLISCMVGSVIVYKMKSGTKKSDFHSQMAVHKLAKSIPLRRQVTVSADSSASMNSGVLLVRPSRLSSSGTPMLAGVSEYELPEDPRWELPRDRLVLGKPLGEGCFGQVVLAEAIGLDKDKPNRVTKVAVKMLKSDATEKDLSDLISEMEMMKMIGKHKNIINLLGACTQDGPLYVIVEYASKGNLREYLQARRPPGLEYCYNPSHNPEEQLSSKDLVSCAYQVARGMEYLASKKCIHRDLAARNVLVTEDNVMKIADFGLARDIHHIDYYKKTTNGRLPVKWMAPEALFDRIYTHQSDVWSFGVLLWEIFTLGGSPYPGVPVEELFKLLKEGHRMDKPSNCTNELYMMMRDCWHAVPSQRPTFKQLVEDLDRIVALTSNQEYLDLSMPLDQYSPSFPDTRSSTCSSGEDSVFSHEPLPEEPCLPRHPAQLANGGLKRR

SMILES | inhibition at 0.041 µM [1] [%] | inhibition at 0.041 µM [2] [%] | inhibition at 1 µM [3] [%] | IC50 [4] [µM] | IC50 [6] [µM] | IC50 [5] [µM] | IC50 [1] [µM]
Clc1cccc(-c2cccc3cnc(Nc4ccc(N5CCOCC5)cc4)nc23)c1 [Example C008, 8-(3-chlorophenyl)-N-(4-morpholinophenyl)quinazolin-2-amine] | < 50 | > 50 | < 50 |  |  |  | 
C=CC(=O)Nc1cccc(-c2nccc3c(N)nc(Nc4ccc(N5CCOCC5)cc4)nc23)c1 [Example C005, N-(3-(4-amino-2-((4-morpholinophenyl)amino)pyrido[3,4-d]pyrimidin-8-yl)phenyl)acrylamide] |  | < 50 | > 50 |  |  |  | 
C=CC(=O)Nc1cccc(-c2cccc3cnc(Nc4ccc(N5CCN(C)CC5)cc4)nc23)c1 [Example C021, N-(3-(2-((4-(4-methylpiperazin-1-yl)phenyl)amino)quinazolin-8-yl)phenyl)acrylamide] | > 50 | > 50 |  | 0.1 to 0.5 | 0.1 to 0.5 | 0.1 to 0.5 | < 0.1
C=CC(=O)Nc1cccc(-c2cccc3cnc(Nc4ccc(N5CCN(CCO)CC5)cc4)nc23)c1 [Example C059, N-(3-(2-((4-(4-(2-hydroxyethyl)piperazin-1-yl)phenyl)amino)quinazolin-8-yl)phenyl)acrylamide] | > 50 |  |  | 0.1 to 0.5 | 0.1 to 0.5 | > 0.5 | < 0.1
Fc1ccc(Cl)cc1-c1cccc2cnc(Nc3ccc(N4CCOCC4)cc3)nc12 [Example C007, 8-(5-chloro-2-fluorophenyl)-N-(4-morpholinophenyl)quinazolin-2-amine] |  |  | < 50 |  |  |  | 
c1ccc(-c2cccc3cnc(Nc4ccc(N5CCOCC5)cc4)nc23)cc1 [Example C004, N-(4-morpholinophenyl)-8-phenylquinazolin-2-amine] |  | > 50 | < 50 |  |  |  | 
C=CC(=O)Nc1cccc(-c2cccc3cnc(Nc4ccc(N5CCOCC5)cc4)nc23)c1 [Example C001, N-(3-(2-((4-morpholinophenyl)amino)quinazolin-8-yl)phenyl)acrylamide] | > 50 | > 50 | > 50 | > 0.5 | > 0.5 | > 0.5 | 
C=CC(=O)Nc1cccc(-c2cccc3cnc(Nc4ccc(N5CCN(C)CC5)cc4OC)nc23)c1 [Example C003, N-(3-(2-((2-methoxy-4-(4-methylpiperazin-1-yl)phenyl)amino)quinazolin-8-yl)phenyl)acrylamide] |  |  | > 50 | > 0.5 | > 0.5 | > 0.5 | 
C=CC(=O)Nc1cccc(-c2cccc3cnc(Nc4ccc(N5CCOCC5)cc4OC)nc23)c1 [Example C002, N-(3-(2-((2-methoxy-4-morpholinophenyl)amino)quinazolin-8-yl)phenyl)acrylamide] |  |  | < 50 | > 0.5 | > 0.5 |  | 
C=CC(=O)Nc1cccc(-c2cccc3cnc(Nc4ccc(N5CCN(C)CC5)nc4)nc23)c1 [Example C041, N-(3-(2-((6-(4-methylpiperazin-1-yl)pyridin-3-yl)amino)quinazolin-8-yl)phenyl)acrylamide] |  |  |  | > 0.5 | > 0.5 | > 0.5 | < 0.1

The next lines start with results.

inhibition at 0.041 µM [1] [%] | inhibition at 0.041 µM [2] [%] | inhibition at 1 µM [3] [%] | IC50 [4] [µM] | IC50 [6] [µM] | SMILES | IC50 [5] [µM] | IC50 [1] [µM]
 | > 50 | < 50 |  |  | Fc1cccc(-c2cccc3cnc(Nc4ccc(N5CCOCC5)cc4)nc23)c1 [Example C009, 8-(3-fluorophenyl)-N-(4-morpholinophenyl)quinazolin-2-amine] |  | 
> 50 | > 50 |  | 0.1 to 0.5 |  | C=CC(=O)Nc1cccc(-c2cccc3cnc(Nc4ccc(N5CCN(CCF)CC5)cc4)nc23)c1 [Example C053, N-(3-(2-((4-(4-(2-fluoroethyl)piperazin-1-yl)phenyl)amino)quinazolin-8-yl)phenyl)acrylamide] |  | 
 |  | < 50 | > 0.5 |  | Clc1ccccc1-c1cccc2cnc(Nc3ccc(N4CCOCC4)cc3)nc12 [Example C011, 8-(2-chlorophenyl)-N-(4-morpholinophenyl)quinazolin-2-amine] |  | 
 | < 50 | < 50 | > 0.5 |  | C=CC(=O)Nc1cccc(-c2nccc3cnc(Nc4ccc(N5CCOCC5)cc4)nc23)c1 [Example C012, N-(3-(2-((4-morpholinophenyl)amino)pyrido[3,4-d]pyrimidin-8-yl)phenyl)acrylamide] |  | 
 |  | < 50 |  |  | Fc1ccccc1-c1cccc2cnc(Nc3ccc(N4CCOCC4)cc3)nc12 [Example C010, 8-(2-fluorophenyl)-N-(4-morpholinophenyl)quinazolin-2-amine] |  | 
< 50 |  |  | > 0.5 | > 0.5 | C=CC(=O)Nc1cccc(-c2cccc3cnc(Nc4ccc(N5CCN(C)CC5)cc4F)nc23)c1 [Example C044, N-(3-(2-((2-fluoro-4-(4-methylpiperazin-1-yl)phenyl)amino)quinazolin-8-yl)phenyl)acrylamide] | > 0.5 | 
